Here are results for two substances from article PMC12055641, “The Study of Antistaphylococcal Potential of Omiganan and Retro-Omiganan Under Flow Conditions” (Probiotics and Antimicrobial Proteins, 2024).

No end group written: not given here.

One series can be described thus: Hemolysis assay. It is filed as cell-based. The conditions noted are these: human, human red blood cells (RBCs), 64 μg/mL (lowest concentration causing hemolysis > 10%); read-out: degree of hemolysis. The protocol:
The hemolysis assay was conducted using a procedure described previously. […] The control wells for 0% hemolysis and 100% hemolysis consisted of RBCs suspended in PBS and 1% of Triton X-100, respectively. […] After centrifugation, the supernatant was carefully […] to new microtiter plates and the release of hemoglobin was monitored by absorbance readings at 540 nm (MultiskanTM GO Microplate Spectrophotometer, Thermo Scientific). All experiments were conducted in triplicate. Blood collection was approved by Medical University of Gdańsk ethics committee (Consent Number: NKBBN/264/2019).

Series [1] relates to S. aureus clinical strain 004N (MRSA) biofilm. The settings on record: clinical strain 004N biofilm, 24 h. An outline of the steps:
(§1)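 Strains were grown 24 h at 37 °C in Mueller–Hinton medium and on agar before testing. MICs were then determined by CLSI broth microdilution, biofilms were formed from 0.5 × 10^7 CFU/mL inocula, and MBEC and MBIC were scored by resazurin reduction after 24 h exposure.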

The test system of series [2] is S. aureus clinical strain 043SC (MRSA). The conditions noted are these: 24 h. An outline of the steps:
as §1

Series [3] has as its system S. aureus clinical strain 015N (MRSA). The settings on record: 24 h. An outline of the steps: as §1
Series [4] relates to reference and clinical strains of staphylococci (S. aureus). The conditions noted are these: 24 h. An outline of the steps: as §1
The subject of series [5] is biofilm of reference and clinical strains of staphylococci (S. aureus). The settings on record: 24 h. An outline of the steps:
as §1

The subject of series [6] is S. aureus ATCC 33591 (MRSA). The conditions noted are these: ATCC 33591, 24 h. Put shortly:
as §1

The subject of series [7] is S. aureus ATCC 33591 (MRSA) biofilm. The conditions noted are these: ATCC 33591, 24 h. Put shortly:
as §1

The test system of series [8] is S. aureus clinical strain 004N (MRSA). The settings on record: 24 h. Put shortly: as §1
Series [9] concerns S. aureus clinical strain 051N (MRSA). The conditions noted are these: 24 h. Put shortly:
as §1

The test system of series [10] is S. aureus clinical strain 043SC (MRSA) biofilm. The conditions noted are these: clinical strain 043SC biofilm, 24 h. Put shortly:
as §1

Series [11] concerns S. aureus clinical strain 051N (MRSA) biofilm. The settings on record: clinical strain 051N biofilm, 24 h. Put shortly: as §1
Series [12] has as its system S. aureus clinical strain 015N (MRSA) biofilm. The settings on record: clinical strain 015N biofilm, 24 h. An outline of the steps:
as §1

Series [13] relates to human keratinocytes (HaCaT). It is filed as cell-based. The conditions noted are these: 24 h. Put shortly:
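HaCaT cells exposed to peptides 24 h at 37 °C, 1.0% (v/v) DMSO in controls. MTT at 0.5 mg/mL final for 4 h, formazan dissolved in DMSO, absorbance 570 nm minus 630 nm; six replicates per concentration, at least two experiments, IC50 calculated.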

For another series, the system named is cells. On the set-up: method as in PMID 11294848. The conditions noted are these: low concentrations; cited from earlier work.

The term MIC denotes the lowest concentration that inhibits growth of the organism. High values mean weaker potency, low ones greater potency. For orientation: IC50 means the concentration needed to halve the response being measured. In the case of KRRWPWWPWRLI-NH2 [Retro-omiganan Cl^−], the hemolysis at 60 min, 64 μg/mL in “Hemolysis assay” was found to be 16%. Besides, the MBEC in series [1] turned out to be 64 µg/mL; in [7], 32 µg/mL; in series [10] it was 32 µg/mL; in series [11], 64 µg/mL; in series [12], 32 µg/mL. Besides, the MBIC in series [1] is 16 µg/mL; in [7], 32 µg/mL; in series [10] it was 16 µg/mL; in series [11], 16 µg/mL; in series [12] it was 16 µg/mL. Further, the MIC in [2] came out at 8 µg/mL; in [3], 8 µg/mL; in [6], 16 µg/mL; in series [8], 16 µg/mL; in series [9] it was 16 µg/mL. Besides, the “mean MIC (initial values)” value in series [4] stood at 8.93 µg/mL. For the same substance, in series [5], the “mean MBEC (initial values)” value is 36.57 µg/mL. The substance further gave an IC50 in series [13] of 26.66 µg/mL.

As for “indolicidin: antimicrobial peptide derived from bovine neutrophil granules (ILPWKWPWWPWRR; ends and bridges not checked; UniProt P33046 131-143, looked up)”, in the series on cells, the “cells with membrane depolarization” value was “up to 75%”.
